Reference: US6790958B2, “Purine inhibitors of cyclin dependent kinase 2 & IKBA” (priority 1996, dated 2004)
Values after ≈ are worked out from the molar mass of the structure shown.

Assays:
[1] = target: CDK2 (Homo sapiens, UniProt P24941); assay: CDK2 assay (histone H1 phosphorylation, 32P-ATP filter assay); type: biochemical; conditions: concentration required to inhibit CDK2 activity by 50%; histone H1, 30 μM ATP, 30° C., 30 min; read-out: IC50 (μg/mL) enzyme (converted)
Method: Compositions of this invention were assayed to determine their CDK2 inhibitory activity. The assay system (total volume of 50 μl) contained 50 mM Tris-Cl, pH 7.4, 10 mMgCl2, 5 mM DTT, 1 μg of histone H1, 30 μM ATP (1 μCi of gamma ^32P labeled ATP?), 10 μg of BSA and 1 μg of purified CDK2. After incubation at 30° C. for 30 min, the reaction was terminated by the addition of 10 μl of 10% TCA and the samples were blotted onto to nitrocellulose filters. These filters were washed extensively in 10% TCA and assayed for radioactivity. Blanks contained no enzyme. […] After incubation at 30 min., the assay tubes Were processed as above.

[2] = tested on: rat aortic smooth muscle cells; assay: Cell proliferation assay, rat aortic smooth muscle cells (MTS); type: cell-based; conditions: concentration required to inhibit cell proliferation by 50%, 48 hr incubation, read-out: IC50 (μg/mL) cells
Method: Early passage rat aortic smooth muscle cells (CV Therapeutics Cell repository) were seeded in 48 well dishes (Falcon, […]) at a density of 20,000 cells/ml of DME containing 5% heat inactivated bovine serum. The cells were incubated in a standard tissue culture incubator for 48 hr. The medium was aspirated and the wells were replenished with 0.2 ml of fresh medium. Compounds of this invention were added at concentrations ranging from 100 to 0.37 μg/ml. After 48 hr incubation, the medium was aspirated and the cultures were treated with 0.2 ml of saline 0.25 μl of phenozine methosulfate solution containing MTS (Cell Titer 96® Aqueous Non-radioactive cell proliferation assay kit, Catalog # G 5430, Promega, 2800 Woods Hollow Road, Madison, Wis. 53711-5399).

| SMILES | IC50 [1] [µM] | IC50 [2] [µg/mL] |
| --- | --- | --- |
| CC(C)n1cnc2c(Nc3cccc(-c4ccc(C#N)cc4)c3)nc(N(CCO)CCO)nc21 | 1.09 | – |
| COc1cccc(CNc2nc(N(CCO)CCO)nc3c2ncn3C(C)C)c1 | 1.25 | – |
| COc1cccc(CNc2nc(Cl)nc3c2ncn3C(C)C)c1 | 2.71 | – |
| CSc1cccc(Nc2nc(N(CCO)CCO)nc3c2ncn3C(C)C)c1 | 0.248 | – |
| CC(C)n1cnc2c(NCc3ccc(-c4ccccn4)cc3)nc(N(CCO)CCO)nc21 | 0.358 | – |
| CC(C)n1cnc2c(NCc3ccc(-c4cccs4)cc3)nc(N(CCO)CCO)nc21 | 1.1 | – |
| Cc1ccc(-c2ccc(CNc3nc(N(CCO)CCO)nc4c3ncn4C(C)C)cc2)cc1 | 1.3 | – |
| CC(C)n1cnc2c(NCc3ccc(-c4ccc(C(F)(F)F)cc4)cc3)nc(N(CCO)CCO)nc21 | 1.17 | – |
| FC(F)(F)n1cnc2c(NCc3ccc(Cl)cc3)nc(Cl)nc21 | 2.76 | – |
| COc1ccc(CNc2nc(Cl)nc3c2ncn3CCCCl)cc1 | > 164 | – |
| COc1ccc(CNc2nc(Cl)nc3c2ncn3CCCC#N)cc1 | > 168 | – |
| COc1ccc(CNc2nc(N(CCO)CCO)nc3c2ncn3C)cc1 | 10.7 | 48 (≈ 129 µM) |
| COc1ccc(CNc2nc(NCCO)nc3c2ncn3C)cc1 | 12.2 | 48 (≈ 146 µM) |
| COc1ccc(CNc2nc(Cl)nc3c2ncn3Cc2ccccc2)cc1 | > 158 | > 70 |
| COc1ccc(CNc2nc(N(CCO)CCO)nc3c2ncn3CCO)cc1 | 1.24 | 62 (≈ 154 µM) |
| COc1ccc(CNc2nc(NC(CO)CO)nc3c2ncn3C(C)C)cc1 | – | 15 (≈ 38.8 µM) |
| COc1ccc(CNc2nc(NCC(O)CN)nc3c2ncn3C(C)C)cc1 (stereo not drawn) | 1.56 | 25 (≈ 64.9 µM) |

| SMILES | IC50 [1] [µM] | IC50 [2] [µg/mL] |
| --- | --- | --- |
| COc1ccc(CNc2nc(N3CCCC(O)C3)nc3c2ncn3C(C)C)cc1 (stereo not drawn) | 2.52 | – |
| COc1ccc(CNc2nc(N3CC=CC3)nc3c2ncn3C(C)C)cc1 | 2.74 | 12.5 (≈ 34.3 µM) |
| COc1ccc(CNc2nc(Cl)nc3c2ncn3C(C)C)cc1 | 12.1 | 77 (≈ 232 µM) |
| COc1ccc(CNc2nc(N(CC(C)O)CC(C)O)nc3c2ncn3C(C)C)cc1 (stereo not drawn) | 1.87 | – |
| COc1ccc(CNc2nc(NCCO)nc3c2ncn3C(C)C)cc1 | 11.2 | 43 (≈ 121 µM) |
| COc1ccc(CNc2nc(N(CCO)Cc3ccccc3)nc3c2ncn3C(C)C)cc1 | 2.24 | – |
| COc1ccc(CNc2nc(Cl)nc3c2ncn3C(F)(C(F)(F)F)C(F)(F)F)cc1 | > 98.3 | – |
| COc1ccc(CNc2nc(N(CCO)CCO)nc3c2ncn3C(F)(C(F)(F)F)C(F)(F)F)cc1 | 76 | – |
| CC(C)n1cnc2c(Nc3ccc(-c4ccccc4)cc3)nc(N(CCO)CCO)nc21 | 1.39 | – |
| CC(C)n1cnc2c(NCc3ccc(-c4ccccc4)cc3)nc(NCC(O)CO)nc21 (stereo not drawn) | 1.39 | – |
| CC(C)n1cnc2c(NCc3ccc(-c4ccccc4)cc3)nc(N(CCO)CCO)nc21 | 1.34 | – |
| CSc1ccc(Nc2nc(Cl)nc3c2ncn3C(C)C)cc1 | 1.8 | – |
| CSc1ccc(Nc2nc(N(CCO)CCO)nc3c2ncn3C(C)C)cc1 | 0.174 | – |
| CC(=O)C(C)n1cnc2c(NCc3ccc(Cl)cc3)nc(N(CCO)CCO)nc21 (stereo not drawn) | 85.5 | – |
| CC(C)n1cnc2c(NCc3ccc(Cl)cc3)nc(NCCN)nc21 | 0.973 | – |
| CC(C)n1cnc2c(NCc3ccc(Cl)cc3)nc(NCC(O)c3ccccc3)nc21 (stereo not drawn) | 0.183 | > 5 |
